Experimental data from patent US7338454B2, “Breath test” (Children, Youth and Women's Health Service Incorporated, priority 2001, dated 2008).
Several values for one entry are separate records, joined by “and”; a condition that tells them apart may be missing. Equal values may be shown once. Marks after values point to notes of the source that are not given here.

Assays:
[1] = tested on: sucrase; test: Ileal sucrase activity in 5-FU treated rats; format: in vivo, rat; details: 5-FU 150 mg/kg i.p., normal level 54.9±0.9
Experimental: (§1) Ten female Dark Agouti rats were injected intraperitoneally with 150 mg/kg 5-FU; three rats there killed at 48, 72 and four at 96 hours after 5-FU treatment. Two control rats were not treated with 5-FU. Sucrose breath tests (SBT) were undertaken before chemotherapy and prior to sacrifice by measuring released ^13CO2 in the breath after gavages of ^13C-sucrose as an indicator of small intestine (SI) sucrase function. Tissue samples were collected from SI for sucrase enzyme determinations and histological assessment from the jejunum and ileum.

[2] = tested on: small intestine; test: Histological severity scores of jejunum and ileum in 5-FU treated rats; format: in vivo, rat; details: 5-FU 150 mg/kg i.p.
Experimental: as §1

[3] = tested on: Dark Agouti rats; test: Food intake of 5-FU treated rats; format: in vivo, rat; details: 5-FU 150 mg/kg i.p.
Experimental: as §1

[4] = target: T1, sucrase (Homo sapiens, UniProt P14410); test: 13C-Sucrose Breath Test in healthy adults, with and without sucrase inhibitor; format: in vivo; details: two human subjects, respectively; 200 mg acarbose with 20 g sucrose vs 20 g sucrose alone
T1 construct: from tissue; host or cells: small-intestinal brush border of living human volunteers (in vivo breath test; no isolated protein)
Experimental: Breath samples were analysed for ^13CO2 by an isotope ratio mass spectrometer (IRMS; Europa Scientific, ABCA 20/20, Crewe, United Kingdom) equipped with a V410 data collection system. Isotope ratio mass spectrometric analysis of breath samples expresses results as a delta value, representing the ratio of ^13C/^12C in the sample in parts per thousand relative to the calcium carbonate international primary standard, Pee-Dee Belemnite limestone (South Carolina, USA)(Renes et al., (1997). Baseline levels of breath ^13CO2 were determined by averaging the delta of breath samples collected prior to the ingestion of sucrose. Results from the ^13C-Sucrose Breath Test were then calculated as the change in breath ^13CO2 levels from baseline (i.e. delta over baseline: DOB) for each time point of breath collection over the period of interval sampling. The area under the “change in breath ^13CO2 level over time” curve (AUC) was calculated using the trapezoidal rule: AUC=Σ[(DOBt1+DOBt2)/2]×(t2−t1)
The study recruited 10 healthy, non-smoking adults (male n=2; female n=8) aged 19-37 years old (mean age 22+2 years) with mean weight 65.2+3 kg. Subjects had no known history of gastrointestinal or liver disease. Antibiotic and non-steroidal antiinflammatory drug use in the three weeks preceding the experiment and acute alcohol consumption the day preceding the experiment warranted exclusion. […]

[5] = tested on: Dark Agouti rats; test: Sucrose breath test in MTX-treated rats with or without folinate; format: in vivo, rat
Experimental: (§2) Sixteen female SPF Dark Agouti rats were housed in individual metabolism cages and were given ad libitum access to a semi-synthetic casein based diet and fresh water. Food and water intakes and body weights were measured daily. They were given two injections of MTX (1.5 mg/kg i/m) at 0 and 24 hrs. Calcium folinate was added to the drinking water of eight rats (10 mg/m^2) 2 hours prior to, and during MTX injections. Eight rats were given MTX but no folinate treatment, and four control rats were given no treatments. Four rats from each treatment group were killed at 72 hours, and the other four at 120 hours, after initial chemotherapy. SBT were undertaken before chemotherapy, and at 52 and 100 hours after initial chemotherapy.
Breath ^13CO2 levels are indicative of sucrase activity in the small intestine. SBTs were undertaken before and after chemotherapy. • Rats were fasted for 3 hrs and placed in the collection chambers for 15 minutes to acclimatise and baseline samples collected into exetainers. • Rats were gavaged with 1.0 ml of a sucrose solution containing 1 g/ml of naturally enriched ^13C-sucrose. • Breath samples were collected at 30, 60 and 90 minute time intervals after gavage and analysed for ^13CO2 by isotope ratio mass spectrometry (PDZ-Europa ABCA).

[6] = tested on: sucrase; test: Jejunal sucrase activity in MTX-treated rats with or without folinate; format: in vivo, rat; details: MTX-treated rats with folinate vs non-folinate
Experimental: as §2
(§3) At the appropriate times, rats were anaesthetised with halothane, cardiac blood samples collected and the animals were killed by cervical dislocation. The small intestine was emptied, flushed with chilled saline and weighed. Samples were collected into formalin from each of the proximal jejunum for histological assessment, and from the jejunum into liquid nitrogen for sucrase and myeloperoxidase determinations.
Sucrase activity was measured using a modification of the glucose oxidase method for estimation of the […] glucose concentration (Dahlqvist, 1968).

[7] = tested on: Dark Agouti rats; test: Food intake, body weight, villus height and overall mucosal damage in MTX-treated rats with or without folinate; format: in vivo, rat
Experimental: as §2, §3

[8] = target: T1, sucrase; test: Breath hydrogen analysis in healthy adults, with and without sucrase inhibitor; format: in vivo; details: 20 g sucrose with or without 200 mg acarbose, 180 min
Experimental: Subjects ingested 20 g, 40 g and 60 g sucrose (AnalaR, BDH, MERCK Pty Ltd, Victoria, Australia) dissolved in 100 ml water on separate occasions. The order of these breath tests was random for each subject. To determine whether the breath test was capable of detecting inhibition of sucrase activity, two volunteers ingested 2×100 mg sucrase inhibitor (Acarbose tablets, Glucobay™) crushed and dissolved in 30 ml water, immediately followed by 20 g sucrose dissolved in 70 ml water.
All subjects were required to fast for a minimum of eight hours prior to testing and for the three hour duration of the test period. Small amounts of water were permitted 30 minutes after ingestion of the test solution. Subjects provided two baseline breath samples immediately prior to ingestion of the test solution. Following ingestion of the test solution, breath samples were collected every 15 minutes for three hours. Physical activity was avoided during the three hour experimental period, particularly at breath collection time points. End-expiratory breath samples were provided by exhaling through a straw into 5×10 ml glass tubes (Exetainer, Labco Limited, High Wycombe, England). […]
Breath samples provided by human subjects were analysed for hydrogen content by gas chromatography (Quintron, Model DP Microlyzer, E.F. Brewer Company, Wisconsin). […]

[9] = tested on: sucrase; test: In vitro assay of sucrase activity in duodenum, jejunum and ileum of methotrexate-treated rats; format: in vivo, rat; details: Day 7 after methotrexate treatment, vs control, p<0.0005
Source text: Rats were sacrificed in the afternoon of day 7 by cervical dislocation under CO2 anaesthesia. The abdomen was opened via a midline incision and the liver and gut excised. The gut contents were flushed thoroughly with phosphate buffered saline, pH 6.0. The small intestine was placed on an ice-cold slab and divided into three sections: the duodenum comprising the intestine from the gastro-duodenal junction to the ligament of Treitz; the remaining intestine from the ligament of Treitz to the caecum was divided in half to provide jejunum and ileum of equal length. […]
the method of Dahlqvist (1968). […] Enzyme activity was then related to the protein concentration of the enzyme preparation as determined by the method of Bradford (1976), in which a standard curve of bovine serum albumin concentration is used to ascertain the protein content of the sample. As a result, the sucrase activity representative of duodenal, jejunal and ileal brush border membrane was determined as μ mol of substrate hydrolysed at 37° C. at pH 6.0/mg protein/hour.
Sucrase activity was expressed as specific activity relative to protein (μmol substrate hydrolysed at 37° C. at pH 6.0/mg protein/hour) and presented as mean±SEM. […] Significant difference in sucrase activity in the duodenum, jejunum and ileum of methotrexate-treated compared to control rats was detected using an unpaired t-test.

[10] = tested on: small intestine; test: Histological severity score of small intestinal damage, methotrexate-treated rats; format: in vivo, rat; details: rats treated with methotrexate seven days earlier, n=4; median; maximum score 33
Source text: Rats were sacrificed in the afternoon of day 7 by cervical dislocation under CO2 anaesthesia. The abdomen was opened via a midline incision and the liver and gut excised. The gut contents were flushed thoroughly with phosphate buffered saline, pH 6.0. The small intestine was placed on an ice-cold slab and divided into three sections: the duodenum comprising the intestine from the gastro-duodenal junction to the ligament of Treitz; the remaining intestine from the ligament of Treitz to the caecum was divided in half to provide jejunum and ileum of equal length. A 4 cm portion was excised from each intestinal section and was rapidly frozen in liquid nitrogen, before being transferred to a −70° C. freezer until determination of sucrase activity. A further 1 cm of each section was excised and fixed in methacarn fixative for two hours, transferred to 70% ethanol for 48 hours, and embedded in paraffin wax for histological analysis (Howarth et al., (1996).
Tissue samples in paraffin wax were sectioned transversely at 21 μm, stained with haematoxylin and eosin to expose the structure of the intestinal mucosa, and examined by an under a light microscope (Howarth et al., 1996). A semi-quantitative histological assessment of intestinal damage was utilised to obtain an overall score of damage severity in the three sections of the small intestine. A severity score ranging from 0-3 was allocated for 11 histological features (table 1), such that the maximum severity score (33) indicated the most severe damage (Howarth et al., 1996).
Histological severity scores were calculated and presented as median and range. The unpaired non-parametric Mann-Whitney two-sample test was employed to compare the severity scores of the methotrexate-treated rats with controls for each section of intestine.

[11] = tested on: myeloperoxidase; test: Jejunal myeloperoxidase (MPO) in MTX-treated rats; format: in vivo, rat; details: MTX treated rats not given folinate, 72 hours
Experimental: as §2, §3

T1 sequence (P14410 whole entry): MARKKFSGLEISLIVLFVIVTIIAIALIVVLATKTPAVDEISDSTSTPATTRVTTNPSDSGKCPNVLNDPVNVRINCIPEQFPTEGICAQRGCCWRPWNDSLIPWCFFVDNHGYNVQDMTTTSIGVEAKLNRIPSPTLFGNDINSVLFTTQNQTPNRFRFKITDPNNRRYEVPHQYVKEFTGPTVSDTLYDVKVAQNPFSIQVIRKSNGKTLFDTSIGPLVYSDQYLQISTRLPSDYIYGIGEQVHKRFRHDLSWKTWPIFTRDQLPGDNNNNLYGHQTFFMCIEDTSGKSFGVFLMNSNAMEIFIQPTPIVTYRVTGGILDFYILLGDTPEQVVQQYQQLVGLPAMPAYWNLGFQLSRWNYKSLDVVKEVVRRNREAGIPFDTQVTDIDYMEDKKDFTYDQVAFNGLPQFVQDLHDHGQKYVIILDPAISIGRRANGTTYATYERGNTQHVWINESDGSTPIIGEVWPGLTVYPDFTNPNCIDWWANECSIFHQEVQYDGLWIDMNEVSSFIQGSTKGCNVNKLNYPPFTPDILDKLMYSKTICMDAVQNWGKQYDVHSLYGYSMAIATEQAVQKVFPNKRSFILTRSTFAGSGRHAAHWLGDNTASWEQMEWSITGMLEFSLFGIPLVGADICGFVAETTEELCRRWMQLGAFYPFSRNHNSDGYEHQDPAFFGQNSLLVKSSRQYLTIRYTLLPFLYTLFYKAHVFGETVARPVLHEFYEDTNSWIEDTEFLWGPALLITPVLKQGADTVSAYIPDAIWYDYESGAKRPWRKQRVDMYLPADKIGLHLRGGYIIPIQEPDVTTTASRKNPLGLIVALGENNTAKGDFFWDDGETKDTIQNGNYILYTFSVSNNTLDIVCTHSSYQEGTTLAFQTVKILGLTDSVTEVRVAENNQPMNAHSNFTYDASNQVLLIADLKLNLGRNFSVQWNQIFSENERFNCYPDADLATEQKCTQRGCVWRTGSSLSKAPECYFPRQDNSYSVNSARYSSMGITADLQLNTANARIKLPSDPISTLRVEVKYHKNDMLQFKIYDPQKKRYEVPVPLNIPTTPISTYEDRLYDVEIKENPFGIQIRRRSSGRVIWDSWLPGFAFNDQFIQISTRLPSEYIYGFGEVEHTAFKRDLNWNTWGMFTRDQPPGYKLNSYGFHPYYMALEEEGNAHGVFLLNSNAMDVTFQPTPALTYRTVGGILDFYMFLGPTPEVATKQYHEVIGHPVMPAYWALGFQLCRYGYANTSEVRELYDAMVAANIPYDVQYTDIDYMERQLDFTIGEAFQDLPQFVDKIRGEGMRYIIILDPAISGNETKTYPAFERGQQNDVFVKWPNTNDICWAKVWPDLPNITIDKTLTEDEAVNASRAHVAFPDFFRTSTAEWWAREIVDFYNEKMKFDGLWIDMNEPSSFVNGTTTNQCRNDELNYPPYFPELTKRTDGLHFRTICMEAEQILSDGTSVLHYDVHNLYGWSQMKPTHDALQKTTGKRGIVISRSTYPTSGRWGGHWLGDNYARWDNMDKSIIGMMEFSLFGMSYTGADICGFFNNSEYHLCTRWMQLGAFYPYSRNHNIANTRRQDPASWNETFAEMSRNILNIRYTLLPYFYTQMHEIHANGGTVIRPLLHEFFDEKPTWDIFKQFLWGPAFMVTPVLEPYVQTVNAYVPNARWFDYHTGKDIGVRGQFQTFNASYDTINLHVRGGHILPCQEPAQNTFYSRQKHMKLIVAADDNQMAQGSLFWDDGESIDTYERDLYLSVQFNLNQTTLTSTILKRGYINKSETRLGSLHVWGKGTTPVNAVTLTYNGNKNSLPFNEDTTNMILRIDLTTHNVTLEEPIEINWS

SMILES: O=c1[nH]cc(F)c(=O)[nH]1 [5-FU, 5-fluorouracil]
- Ileal sucrase activity at 72 hours [1]: 7.52±0.82 nmol glucose/min/cm
- Histological severity score, ileum, 72 hours [2]: 12
- Histological severity score, ileum, 96 hours [2]: 8
- Histological severity score, jejunum, 72 hours [2]: 8
- Histological severity score, jejunum, 96 hours [2]: 5
- Histological severity score, ileum, 48 hours ([2]; median): 17
- Histological severity score, jejunum, 48 hours ([2]; median): 13
- Food intake 72 hours after injection [3]: 4.7 ± 0.7 g
- Food intake 96 hours after injection [3]: 6.4 ± 0.8 g
- Food intake 24 hours after injection ([3]; before treatment 11.1±0.3 g/rat/day): 5.3 ± 0.4 g

SMILES: C[C@H]1O[C@H](O[C@H]2[C@H](O)[C@@H](O)[C@@H](O[C@H]3[C@H](O)[C@@H](O)C(O)O[C@@H]3CO)O[C@@H]2CO)[C@H](O)[C@@H](O)[C@@H]1N[C@H]1C=C(CO)[C@@H](O)[C@H](O)[C@H]1O (stereo partly shown) [Acarbose]
- Breath 13CO2 AUC diminished in the presence of the inhibitor [4]: 57% and 93%

SMILES: Nc1nc(=O)c2c([nH]1)NCC(CNc1ccc(C(=O)N[C@@H](CCC(=O)[O-])C(=O)[O-])cc1)N2C=O.[Ca+2] (stereo partly shown) [Calcium folinate]
- Disruption to the sucrase activity by SBT, folinate vs no folinate ([5]; MTX-treated rats, p<0.0012 at 52 hours, p<0.0136 at 100 hours): significant decrease in disruption to the sucrase activity
- SBT result (breath 13CO2) 52 hrs after MTX treatment ([5]; rats, MTX 1.5 mg/kg i/m at 0 and 24 hrs, calcium folinate 10 mg/m^2 in drinking water): attenuates mucosal damage
- Jejunal sucrase activity [6]: prevented the reduction in jejunal sucrase activity
- Damage to the small intestinal mucosa by sucrase activity, MPO levels, histological changes and sucrose breath testing ([7]; MTX-treated rats): totally prevented damage
- Villus heights (structural damage) ([7]; MTX-treated rats, folinate administered orally): structural damage was attenuated

SMILES: OC[C@H]1O[C@@](CO)(O[C@H]2O[C@H](CO)[C@@H](O)[C@H](O)[C@H]2O)[C@@H](O)[C@@H]1O [Sucrose, sucrose]
- Breath Hydrogen, Subject 1, maximum change from baseline [8]: 2 ppm
- Breath Hydrogen, Subject 2, maximum change from baseline [8]: 2 ppm

SMILES: CN(Cc1cnc2nc(N)nc(N)c2n1)c1ccc(C(=O)N[C@@H](CCC(=O)O)C(=O)O)cc1 [methotrexate]
- Sucrase activity in duodenum, jejunum and ileum [9]: significantly diminished in all three sections of intestine
- Severity score, duodenum [10]: 8 *
- Severity score, ileum [10]: 6.5 *
- Severity score, jejunum [10]: 10 *
- Myeloperoxidase (inflammatory marker), jejunum [11]: significantly higher
- Body weights ([7]; rats, MTX without folinate, after chemotherapy): decreased
- Reduction in food intake ([7]; rats, MTX without folinate, from t0 to 96 hours after treatment): 20%
